# Patent publication US20230039766A1, “COMBINATION THERAPY” (TURBINE SIMULATED CELL TECHNOLOGIES LTD, priority 2019, published 2023)
# What was measured:
# NCIH1975 cell line = assay: CellTiter-Glo cell viability assay with Bliss synergy, NCIH1975 cells; assay type: cell-based
# BT474 cell line = assay: CellTiter-Glo cell viability assay with Bliss synergy, BT474 cells; assay type: cell-based
smiles,measurement,setting,value
O=C(c1cc(Cc2n[nH]c(=O)c3ccccc23)ccc1F)N1CCN(C(=O)C2CC2)CC1 [Olaparib],Viability/εij,NCIH1975 cell line; Olaparib 6.67 μM monotherapy,0.678
same,Viability/εij,BT474 cell line; Olaparib 6.67 μM monotherapy,0.825
O=c1[nH]c(=S)[nH]c(N=Cc2ccccc2)c1N=Cc1ccccc1 [SCR7],Viability/εij,BT474 cell line; SCR7 60 μM monotherapy,0.653
Cn1ncnc1[C@H]1c2n[nH]c(=O)c3cc(F)cc(c23)N[C@@H]1c1ccc(F)cc1 [Talazoparib],Viability/εij,NCIH1975 cell line; Talazoparib 0.25 μM monotherapy,0.597
